According to US12195473B2, “KRAS mutant protein inhibitors” (JACOBIO PHARMACEUTICALS CO., LTD, priority 2019, dated 2025):
Where two headings read alike, the source gives them in different places.

Columns and labels:
HIS-KRAS (G12C) = assay type: biochemical; details: read-out: SOS1 catalyzed nucleotide exchange IC50
[1] = Mouse pharmacokinetic study; assay type: in vivo, Balb/c mouse
Procedure: 3. Mouse Pharmacokinetic Study
The purpose of this study was to evaluate the pharmacokinetic properties of compounds in Balb/c mouse (♀) following single dose administration. The day before administration, mice were fasted overnight and free access to water. Six mice were needed for each compound and the six mice were divided into two groups (n=3/group), group A and group B. Mice in group A were treated with a single 3 mg/kg dose of compound (iv). Mice in group B were treated with a single 10 mg/kg dose of compound (po). For each mouse in group A, blood samples were collected at pre-dose, and at the time point of 0.083, 0.25, 0.5, 1, 2, 4, 6, 8 and 24 h post-dose. For each mouse in group B, blood samples were collected at pre-dose, and at the time point of 0.25, 0.5, 1, 2, 3, 4, 6, 8 and 24 h post-dose. Blood samples were placed on ice until centrifugation to obtain plasma samples. The plasma samples were stored at −80° C. until analysis. The concentration of compound in plasma samples were determined using a LC-MS/MS method.

[2] = GDP-loaded HIS-KRAS (G12C), 1 hour pre-incubation with compound, TR-FRET

| SMILES | IC50 (HIS-KRAS (G12C); [2]) [nM] | further results |
| --- | --- | --- |
| C=CC(=O)N1CCN(c2c(C#N)c(=O)n(-c3c(C)ccnc3C(C)C)c3nc(-c4c(N)c(F)c(F)c(F)c4Cl)c(Cl)cc23)C[C@H]1C (single isomer, unassigned) [Compound 10-1] | 43.9 | – |
| C=CC(=O)N1CCN(c2c(C#N)c(=O)n(-c3c(C)ccnc3C(C)C)c3nc(-c4c(N)c(F)c(F)c(F)c4Cl)c(Cl)cc23)C[C@H]1C (single isomer, unassigned) [Compound 10-2] | 4.16 | – |
| C=CC(=O)N1CCN(c2c(C#N)c(=O)n(-c3c(C)ccnc3C(C)C)c3nc(-c4c(N)c(F)c(F)c(F)c4F)c(Cl)cc23)[C@@H](C)C1 (single isomer, unassigned) [Compound 11-1] | 29.6 | – |
| C=CC(=O)N1CCN(c2c(C#N)c(=O)n(-c3c(C)ccnc3C(C)C)c3nc(-c4c(N)c(F)c(F)c(F)c4F)c(Cl)cc23)[C@@H](C)C1 (single isomer, unassigned) [Compound 11-2] | 2.11 | – |
| C=CC(=O)N1CCN(c2c(C#N)c(=O)n(-c3c(C)ccnc3C(C)C)c3nc(-c4c(F)c(F)c(F)c(N)c4Cl)c(Cl)cc23)CC1 (single isomer, unassigned) [Compound 12-1, 4-(4-acryloylpiperazin-1-yl)-7-(3-amino-2-chloro-4,5,6-trifluorophenyl)-6-chloro-1-(2-isopropyl-4-methylpyridin-3-yl)-2-oxo-1,2-dihydro-1,8-naphthyridine-3-carbonitrile] | 16 | – |
| C=CC(=O)N1CCN(c2c(C#N)c(=O)n(-c3c(C)ccnc3C(C)C)c3nc(-c4c(F)c(F)c(F)c(N)c4Cl)c(Cl)cc23)CC1 (single isomer, unassigned) [Compound 12-2, 4-(4-acryloylpiperazin-1-yl)-7-(3-amino-2-chloro-4,5,6-trifluorophenyl)-6-chloro-1-(2-isopropyl-4-methylpyridin-3-yl)-2-oxo-1,2-dihydro-1,8-naphthyridine-3-carbonitrile] | – | IC50 (HIS-KRAS (G12C)): 2.01 nM |
| C=CC(=O)N1[C@H](C)CN(c2c(C#N)c(=O)n(-c3c(C)ccnc3C(C)C)c3nc(-c4c(N)c(F)c(F)c(F)c4F)c(Cl)cc23)C[C@@H]1C (single isomer, unassigned) [Compound 13-1] | 2.73 | – |
| C=CC(=O)N1[C@H](C)CN(c2c(C#N)c(=O)n(-c3c(C)ccnc3C(C)C)c3nc(-c4c(N)c(F)c(F)c(F)c4F)c(Cl)cc23)C[C@@H]1C (single isomer, unassigned) [Compound 13-2] | 11.5 | – |
| C=CC(=O)N1CCN(c2c(C#N)c(=O)n(-c3c(C)ccnc3C(C)C)c3nc(-c4c(F)c(F)c(F)c(N)c4Cl)c(Cl)cc23)[C@@H](C)C1 (single isomer, unassigned) [Compound 15-1] | 6.87 | – |
| C=CC(=O)N1CCN(c2c(C#N)c(=O)n(-c3c(C)ccnc3C(C)C)c3nc(-c4c(F)c(F)c(F)c(N)c4Cl)c(Cl)cc23)[C@@H](C)C1 (single isomer, unassigned) [Compound 15-2] | 83.9 | – |
| C=CC(=O)N1[C@H](C)CN(c2c(C#N)c(=O)n(-c3c(C)ccnc3C(C)C)c3nc(-c4ccccc4F)c(Cl)cc23)C[C@@H]1C [Amgen 7.3, 4-((3S,5R)-4-acryloyl-3,5-dimethylpiperazin-1-yl)-6-chloro-7-(2-fluorophenyl)-1-(2-isopropyl-4-methylpyridin-3-yl)-2-oxo-1,2-dihydro-1,8-naphthyridine-3-carbonitrile, reference compound] | 10.5 | – |
| C=CC(=O)N1CCN(c2c(C#N)c(=O)n(-c3c(C)ccnc3C(C)C)c3nc(-c4c(Cl)c(N)c(F)c(F)c4Cl)c(Cl)cc23)CC1 [Compound 2, 4-(4-acryloylpiperazin-1-yl)-7-(3-amino-2,6-dichloro-4,5-difluorophenyl)-6-chloro-1-(2-isopropyl-4-methylpyridin-3-yl)-2-oxo-1,2-dihydro-1,8-naphthyridine-3-carbonitrile] | 6.66 | – |
| C=CC(=O)N1CCN(c2c(C#N)c(=O)n(-c3c(C)ccnc3C(C)C)c3nc(-c4c(N)c(Cl)c(F)c(F)c4F)c(Cl)cc23)CC1 [Compound 3, 4-(4-acryloylpiperazin-1-yl)-7-(2-amino-3-chloro-4,5,6-trifluorophenyl)-6-chloro-1-(2-isopropyl-4-methylpyridin-3-yl)-2-oxo-1,2-dihydro-1,8-naphthyridine-3-carbonitrile] | 3.67 | – |
| C=CC(=O)N1CCN(c2c(C#N)c(=O)n(-c3c(C)ccnc3C(C)C)c3nc(-c4c(N)c(Cl)c(F)c(Cl)c4F)c(Cl)cc23)CC1 [Compound 4, 4-(4-acryloylpiperazin-1-yl)-7-(2-amino-3,5-dichloro-4,6-difluorophenyl)-6-chloro-1-(2-isopropyl-4-methylpyridin-3-yl)-2-oxo-1,2-dihydro-1,8-naphthyridine-3-carbonitrile] | 3.48 | – |
| C=CC(=O)N1CCN(c2c(C#N)c(=O)n(-c3c(C)ccnc3C(C)C)c3nc(-c4c(F)c(N)c(F)c(F)c4F)c(Cl)cc23)CC1 [Compound 6, 4-(4-acryloylpiperazin-1-yl)-7-(3-amino-2,4,5,6-tetrafluorophenyl)-6-chloro-1-(2-isopropyl-4-methylpyridin-3-yl)-2-oxo-1,2-dihydro-1,8-naphthyridine-3-carbonitrile] | 1.51 | – |
| C=CC(=O)N1[C@H](C)CN(c2c(C#N)c(=O)n(-c3c(C)ccnc3C(C)C)c3nc(-c4c(F)c(F)c(F)c(N)c4Cl)c(Cl)cc23)C[C@@H]1C [Compound 7, 4-((3S,5R)-4-acryloyl-3,5-dimethylpiperazin-1-yl)-7-(3-amino-2-chloro-4,5,6-trifluorophenyl)-6-chloro-1-(2-isopropyl-4-methylpyridin-3-yl)-2-oxo-1,2-dihydro-1,8-naphthyridine-3-carbonitrile] | 14.9 | – |
| C=CC(=O)N1[C@H](C)CN(c2c(C#N)c(=O)n(-c3c(C)ccnc3C(C)C)c3nc(-c4c(F)c(N)c(F)c(F)c4F)c(Cl)cc23)C[C@@H]1C [Compound 8, 4-((3S,5R)-4-acryloyl-3,5-dimethylpiperazin-1-yl)-7-(3-amino-2,4,5,6-tetrafluorophenyl)-6-chloro-1-(2-isopropyl-4-methylpyridin-3-yl)-2-oxo-1,2-dihydro-1,8-naphthyridine-3-carbonitrile] | 6.68 | – |
| C=CC(=O)N1CCN(c2c(C#N)c(=O)n(-c3c(C)ccnc3C(C)C)c3nc(-c4c(N)c(F)c(F)c(F)c4F)c(Cl)cc23)C[C@H]1C [Compound 9, 4-((R)-4-acryloyl-3-methylpiperazin-1-yl)-7-(2-amino-3,4,5,6-tetrafluorophenyl)-6-chloro-1-(2-isopropyl-4-methylpyridin-3-yl)-2-oxo-1,2-dihydro-1,8-naphthyridine-3-carbonitrile] | 2.3 | – |
| C=CC(=O)N1CCN(c2c(C#N)c(=O)n(-c3c(C)ccnc3C(C)C)c3nc(-c4c(N)c(F)c(F)c(F)c4F)c(Cl)cc23)[C@@H](C)C1 [Compound 11, 4-((S)-4-acryloyl-2-methylpiperazin-1-yl)-7-(2-amino-3,4,5,6-tetrafluorophenyl)-6-chloro-1-(2-isopropyl-4-methylpyridin-3-yl)-2-oxo-1,2-dihydro-1,8-naphthyridine-3-carbonitrile] | – | Pharmacokinetic properties (in words) ([1]; mouse model, compared with Compound A, Amgen 6 and Amgen 6.3): excellent pharmacokinetic properties; clearance ([1]; plasma, Balb/c mouse (female), 3 mg/kg, iv): 7.2 mL/min/kg; Vd ([1]; plasma, Balb/c mouse (female), 3 mg/kg, iv, read-out: Vss): 1 L/kg; Cmax ([1]; plasma, Balb/c mouse (female), 10 mg/kg, po): 3340 ng/mL; AUC(0-t) ([1]; plasma, Balb/c mouse (female), 10 mg/kg, po, read-out: AUC0-24 h): 9590 ng·h/mL; bioavailability ([1]; plasma, Balb/c mouse (female), 10 mg/kg, po, read-out: Oral BA (F %)): 38% |
| C=CC(=O)N1CCN(c2c(C#N)c(=O)n(-c3c(C)ccnc3C(C)C)c3nc(-c4c(F)c(F)c(F)c(N)c4Cl)c(Cl)cc23)CC1 [Compound 12, 4-(4-acryloylpiperazin-1-yl)-7-(3-amino-2-chloro-4,5,6-trifluorophenyl)-6-chloro-1-(2-isopropyl-4-methylpyridin-3-yl)-2-oxo-1,2-dihydro-1,8-naphthyridine-3-carbonitrile] | – | IC50 (HIS-KRAS (G12C)): 3.85 nM |
| C=CC(=O)N1[C@H](C)CN(c2c(C#N)c(=O)n(-c3c(C)ccnc3C(C)C)c3nc(-c4c(N)c(F)c(F)c(F)c4F)c(Cl)cc23)C[C@@H]1C [Compound 13, 4-((3S,5R)-4-acryloyl-3,5-dimethylpiperazin-1-yl)-7-(2-amino-3,4,5,6-tetrafluorophenyl)-6-chloro-1-(2-isopropyl-4-methylpyridin-3-yl)-2-oxo-1,2-dihydro-1,8-naphthyridine-3-carbonitrile] | 6.63 | – |
| C=CC(=O)N1CCN(c2c(C#N)c(=O)n(-c3c(C)ccnc3C(C)C)c3nc(-c4c(N)c(F)c(F)c(F)c4F)c(Cl)cc23)C[C@H]1C [Compound 14, 4-((R)-4-acryloyl-3-methylpiperazin-1-yl)-7-(2-amino-3,4,5,6-tetrafluorophenyl)-6-chloro-1-(2-isopropyl-4-methylpyridin-3-yl)-2-oxo-1,2-dihydro-1,8-naphthyridine-3-carbonitrile] | 3.56 | – |
| C=CC(=O)N1CCN(c2c(C#N)c(=O)n(-c3c(C)ccnc3C(C)C)c3nc(-c4c(N)cccc4F)c(Cl)cc23)CC1 [Compound A, 4-(4-acryloylpiperazin-1-yl)-7-(2-amino-6-fluorophenyl)-6-chloro-1-(2-isopropyl-4-methylpyridin-3-yl)-2-oxo-1,2-dihydro-1,8-naphthyridine-3-carbonitrile, reference compound] | 1.69 | – |
